Test results taken from ChEMBL document CHEMBL3885861, “Open TG-GATES”.

Species on record: Rattus norvegicus
Experiment: Open TG-GATES - Regimen: Single
Assay type: toxicity, organism-based, Sprague-Dawley
Set-up: regimen Single, gender Male, age 6 weeks
Settings: in vivo, po, route gavage; for Bas / Eos / Fbg / Hb / Ht / Lym / MCHC / MCV / Mono / Neu / PT / Plat / RBC / WBC / MCH / APTT: tissue Blood; for KIDNEY_L / KIDNEY_R / KIDNEY_TOTAL: tissue Kidney; for LIVER: tissue Liver; for ALT / AST / BUN / CRE / Cl / DBIL / GLC / IP / LDH / Na / RALB / TBIL / TC / TG / TP / gamma-GTP: tissue Plasma
[1] = 20 mg/kg, 3 h, dose level Middle

## CC/C(=C(\c1ccccc1)c1ccc(OCCN(C)C)cc1)c1ccccc1 [TAMOXIFEN]
6 mg/kg, 3 h, dose level Low
  Bas: 0%
  Eos: 1%
  Fbg: 247 mg/dL
  Hb: 13.1 g/dL
  Ht: 39.6%
  Lym: 78.4%
  MCHC: 33.1%
  MCV: 64.6 fL
  Mono: 3.4%
  Neu: 16.6%
  PT: 12 s
  Plat: 122.7 x10_4/uL
  RBC: 612.6 x10_4/ul
  WBC: 83.4 x10_2/uL
  KIDNEY_L: 0.8 g
  KIDNEY_R: 0.9 g
  KIDNEY_TOTAL: 1.7 g
  LIVER: 8.4 g
  ALT: 50.6 IU/L
  AST: 81.2 IU/L
  BUN: 11.2 mg/dL
  CRE: 0.2 mg/dL
  Cl: 107.6 meq/L
  DBIL: 0.032 mg/dL
  GLC: 173.4 mg/dL
  IP: 8.9 mg/dL
  LDH: 58.2 IU/L
  Na: 140.4 meq/L
  RALB: 2.6 g/dL
  TBIL: 0.046 mg/dL
  TC: 80.8 mg/dL
  TG: 113.6 mg/dL
  TP: 5.6 g/dL
  gamma-GTP: 1 IU/L
6 mg/kg, 6 h, dose level Low
  TERMINAL_BW: 195.3 g
  Bas: 0%
  Eos: 1%
  Fbg: 258.6 mg/dL
  Hb: 13.1 g/dL
  Ht: 39.6%
  Lym: 77.4%
  MCH: 21.6 pg
  MCHC: 33.2%
  MCV: 65.1 fL
  Mono: 3.2%
  Neu: 18%
  PT: 12.1 s
  Plat: 120.4 x10_4/uL
  RBC: 608.2 x10_4/ul
  WBC: 67.4 x10_2/uL
  KIDNEY_L: 0.9 g
  KIDNEY_R: 0.9 g
  KIDNEY_TOTAL: 1.7 g
  LIVER: 8.2 g
  ALT: 41 IU/L
  AST: 77 IU/L
  BUN: 8.2 mg/dL
  CRE: 0.1 mg/dL
  Cl: 108.2 meq/L
  DBIL: 0.014 mg/dL
  GLC: 180.2 mg/dL
  IP: 10.9 mg/dL
  LDH: 93.6 IU/L
  Na: 141.6 meq/L
  RALB: 2.5 g/dL
  TBIL: 0.05 mg/dL
  TC: 81.4 mg/dL
  TG: 46.6 mg/dL
  TP: 5.4 g/dL
  gamma-GTP: 1.4 IU/L
6 mg/kg, 9 h, dose level Low
  TERMINAL_BW: 191.5 g
  APTT: 16 s
  Bas: 0%
  Eos: 1%
  Fbg: 248.8 mg/dL
  Hb: 12.8 g/dL
  Lym: 68.8%
  MCH: 21.5 pg
  MCHC: 33.5%
  MCV: 64.3 fL
  Mono: 2.6%
  Neu: 27.2%
  PT: 12.5 s
  Plat: 116.1 x10_4/uL
  RBC: 597.4 x10_4/ul
  WBC: 68.7 x10_2/uL
  KIDNEY_L: 0.8 g
  KIDNEY_R: 0.8 g
  KIDNEY_TOTAL: 1.6 g
  LIVER: 7.1 g
  ALT: 39 IU/L
  AST: 77.2 IU/L
  BUN: 9.6 mg/dL
  CRE: 0.2 mg/dL
  Cl: 108.2 meq/L
  DBIL: 0.01 mg/dL
  GLC: 186.6 mg/dL
  IP: 11 mg/dL
  LDH: 62.4 IU/L
  Na: 143.6 meq/L
  RALB: 2.5 g/dL
  TBIL: 0.046 mg/dL
  TC: 67.2 mg/dL
  TG: 33.4 mg/dL
  TP: 5.3 g/dL
  gamma-GTP: 1 IU/L
6 mg/kg, 24 h, dose level Low
  TERMINAL_BW: 194.3 g
  APTT: 17.4 s
  Bas: 0%
  Eos: 1.2%
  Fbg: 250.2 mg/dL
  Hb: 12.8 g/dL
  Ht: 38.6%
  Lym: 79%
  MCH: 20.9 pg
  MCHC: 33.2%
  MCV: 62.9 fL
  Mono: 3.2%
  Neu: 16.4%
  PT: 12.8 s
  Plat: 113.7 x10_4/uL
  RBC: 613.8 x10_4/ul
  WBC: 80.8 x10_2/uL
  KIDNEY_L: 0.9 g
  KIDNEY_R: 0.9 g
  KIDNEY_TOTAL: 1.7 g
  LIVER: 8.7 g
  ALT: 51 IU/L
  AST: 79.8 IU/L
  BUN: 12.8 mg/dL
  CRE: 0.2 mg/dL
  Cl: 108 meq/L
  DBIL: 0.012 mg/dL
  GLC: 184.4 mg/dL
  IP: 8 mg/dL
  LDH: 55.2 IU/L
  Na: 142.4 meq/L
  RALB: 2.5 g/dL
  TBIL: 0.036 mg/dL
  TC: 61.6 mg/dL
  TG: 64.2 mg/dL
  TP: 5.4 g/dL
  gamma-GTP: 1.4 IU/L
[1]
  TERMINAL_BW: 194.9 g
  APTT: 16.5 s
  Bas: 0.2%
